Results published in PubChem BioAssay AID248 (DTP/NCI, 2004).
Toxic doses and inconclusive results are not listed. Cut-off read from the data, not from the text of the source: active = T/C of 150% or more; inactive = T/C below 125%.

Tested on: L1210 leukemia ip in BDF1 mice, survival T/C
Experiment: NCI In Vivo Anticancer Drug Screen. Data for tumor model L1210 Leukemia (intraperitoneal) in B6D2F1 (BDF1) mice
Conditions: endpoint: mean survival time, higher = longer survival
Outline: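 Value reflects the ratio of survival in compound-treated mice to survival in vehicle-treated controls, with both groups carrying the same transplanted tumor.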

[1] = dose: 100.0 mg/kg/injection, schedule: Q01DX001 (ip), vehicle: saline
[2] = dose: 25.0 mg/kg/injection, schedule: Q04DX002 (ip), vehicle: Klucel (hydroxypropylcellulose) (HPC)
[3] = dose: 50.0 mg/kg/injection, schedule: Q04DX002 (ip), vehicle: Klucel (hydroxypropylcellulose) (HPC)
[4] = dose: 100.0 mg/kg/injection, schedule: Q04DX002 (ip), vehicle: Klucel (hydroxypropylcellulose) (HPC)
[5] = dose: 100.0 mg/kg/injection, schedule: Q01DX009 (ip), vehicle: saline
[6] = dose: 200.0 mg/kg/injection, schedule: Q01DX009 (ip), vehicle: saline
[7] = dose: 400.0 mg/kg/injection, schedule: Q01DX009 (ip), vehicle: saline
[8] = dose: 100.0 mg/kg/injection, schedule: Q04DX003 (ip), vehicle: saline
[9] = dose: 200.0 mg/kg/injection, schedule: Q04DX003 (ip), vehicle: saline
[10] = dose: 400.0 mg/kg/injection, schedule: Q04DX003 (ip), vehicle: saline
[11] = dose: 100.0 mg/kg/injection, schedule: Q01DX009 (ip), vehicle: Klucel (hydroxypropylcellulose) (HPC)
[12] = dose: 200.0 mg/kg/injection, schedule: Q01DX009 (ip), vehicle: Klucel (hydroxypropylcellulose) (HPC)
[13] = dose: 400.0 mg/kg/injection, schedule: Q01DX009 (ip), vehicle: Klucel (hydroxypropylcellulose) (HPC)
[14] = dose: 200.0 mg/kg/injection, schedule: Q01DX001 (ip), vehicle: saline
[15] = dose: 400.0 mg/kg/injection, schedule: Q01DX001 (ip), vehicle: saline

Measured: T/C

CC1(C)N=C(N)N=C(N)N1c1cccc(OCc2cccc([N+](=O)[O-])c2)c1
inactive: dose: 5.0 mg/kg/injection, schedule: Q01DX001 (ip), vehicle: saline 104 % of control | dose: 10.0 mg/kg/injection, schedule: Q01DX001 (ip), vehicle: saline 98 % of control | dose: 20.0 mg/kg/injection, schedule: Q01DX001 (ip), vehicle: saline 110 % of control | dose: 40.0 mg/kg/injection, schedule: Q01DX001 (ip), vehicle: saline 89 % of control | [1] 96 % of control

CCSN1C(=O)c2ccccc2C1=O
inactive: [2] 92 % of control | [3] 100 % of control | [4] 92 % of control

CC(C)(C(=O)O)S(=O)(=O)O
inactive: [5] 108 % of control | [6] 97 % of control | [7] 103 % of control

Cc1ccc(S(=O)(=O)OC(c2ccccc2)c2ccccc2)cc1
inactive: [2] 97 % of control | [3] 97 % of control | [4] 93 % of control

CCCCP(=S)(N1CCCCC1)N1CCCCC1
inactive: [8] 95 % of control | [9] 97 % of control | [10] 86 % of control

O=c1c(N=Nc2ccc(Br)cc2)c(O)n(-c2ccc(Br)cc2)c(=S)n1-c1ccccc1
inactive: dose: 37.5 mg/kg/injection, schedule: Q01DX001 (ip), vehicle: Klucel (hydroxypropylcellulose) (HPC) 108 % of control | dose: 75.0 mg/kg/injection, schedule: Q01DX001 (ip), vehicle: Klucel (hydroxypropylcellulose) (HPC) 110 % of control | dose: 150.0 mg/kg/injection, schedule: Q01DX001 (ip), vehicle: Klucel (hydroxypropylcellulose) (HPC) 102 % of control

C#CCCCCCCl
inactive: dose: 100.0 mg/kg/injection, schedule: Q01DX001 (ip), vehicle: other 95 % of control | dose: 200.0 mg/kg/injection, schedule: Q01DX001 (ip), vehicle: other 102 % of control

COc1ccc(OC)c(N(CCN2C(=O)c3ccccc3C2=O)C(=O)C2CCC(=O)C2C)c1 (centres undefined)
inactive: dose: 100.0 mg/kg/injection, schedule: Q04DX002 (ip), vehicle: saline with Tween-80 100 % of control | dose: 200.0 mg/kg/injection, schedule: Q04DX002 (ip), vehicle: saline with Tween-80 103 % of control | dose: 400.0 mg/kg/injection, schedule: Q04DX002 (ip), vehicle: saline with Tween-80 97 % of control

S=C1Nc2ccccc2CS1
inactive: [11] 100 % of control | [12] 98 % of control | [13] 102 % of control

CCN(CC)CCCNc1cc(OC)cc2cccnc12
inactive: dose: 10.0 mg/kg/injection, schedule: Q01DX001 (ip), vehicle: carboxymethylcellulose (CMC) 107 % of control | dose: 20.0 mg/kg/injection, schedule: Q01DX001 (ip), vehicle: carboxymethylcellulose (CMC) 101 % of control

N=c1c2ccccc2c2ccccc2n1O
inactive: dose: 100.0 mg/kg/injection, schedule: Q04DX003 (ip), vehicle: saline with Tween-80 96 % of control | dose: 200.0 mg/kg/injection, schedule: Q04DX003 (ip), vehicle: saline with Tween-80 98 % of control | dose: 400.0 mg/kg/injection, schedule: Q04DX003 (ip), vehicle: saline with Tween-80 103 % of control

NC(C(=O)O)c1ccccc1Cl (centres undefined)
inactive: dose: 50.0 mg/kg/injection, schedule: Q01DX009 (ip), vehicle: Klucel (hydroxypropylcellulose) (HPC) 95 % of control | dose: 100.0 mg/kg/injection, schedule: Q01DX001 (ip), vehicle: Klucel (hydroxypropylcellulose) (HPC) 92 % of control | [11] 101 % of control | dose: 200.0 mg/kg/injection, schedule: Q01DX001 (ip), vehicle: Klucel (hydroxypropylcellulose) (HPC) 102 % of control | [12] 107 % of control | dose: 400.0 mg/kg/injection, schedule: Q01DX001 (ip), vehicle: Klucel (hydroxypropylcellulose) (HPC) 91 % of control

O=C(N/N=C/c1cc([N+](=O)[O-])ccc1O)c1cccc2ccccc12
inactive: [1] 90 % of control | [14] 90 % of control | [15] 92 % of control

[O]=[Sn]([OH])[OH]
inactive: [5] 97 % of control | [6] 94 % of control

Cc1ccc(C)c(CCl)c1
inactive: dose: 75.0 mg/kg/injection, schedule: Q01DX001 (ip), vehicle: saline 101 % of control | dose: 150.0 mg/kg/injection, schedule: Q01DX001 (ip), vehicle: saline 95 % of control

Cn1nnnc1/N=C/c1ccccc1
inactive: [8] 105 % of control | [9] 94 % of control | [10] 94 % of control

CC(C)(C)OC(=O)NC(Cc1ccccc1)C(=O)NN (centres undefined)
inactive: [4] 108 % of control | dose: 200.0 mg/kg/injection, schedule: Q04DX002 (ip), vehicle: Klucel (hydroxypropylcellulose) (HPC) 97 % of control | dose: 400.0 mg/kg/injection, schedule: Q04DX002 (ip), vehicle: Klucel (hydroxypropylcellulose) (HPC) 108 % of control

CC1(C)N=C(N)N=C(N)N1c1cccc(/C=C/C=C/c2cccc([N+](=O)[O-])c2)c1
inactive: [1] 100 % of control

NC(=O)C1=Cc2cc(Cl)cc(Cl)c2OC1
inactive: dose: 100.0 mg/kg/injection, schedule: Q01DX009 (ip), vehicle: saline with Tween-80 93 % of control | dose: 200.0 mg/kg/injection, schedule: Q01DX009 (ip), vehicle: saline with Tween-80 93 % of control | dose: 400.0 mg/kg/injection, schedule: Q01DX009 (ip), vehicle: saline with Tween-80 98 % of control

CCCCCCCCCCCCCCC(S(=O)(=O)CC)S(=O)(=O)CC
inactive: dose: 100.0 mg/kg/injection, schedule: Q04DX003 (ip), vehicle: Klucel (hydroxypropylcellulose) (HPC) 95 % of control | dose: 200.0 mg/kg/injection, schedule: Q04DX003 (ip), vehicle: Klucel (hydroxypropylcellulose) (HPC) 100 % of control | dose: 400.0 mg/kg/injection, schedule: Q04DX003 (ip), vehicle: Klucel (hydroxypropylcellulose) (HPC) 90 % of control

O=c1[nH]c(=O)n(C2CCCO2)cc1I (centres undefined)
inactive: dose: 100.0 mg/kg/injection, schedule: Q01DX001 (ip), vehicle: carboxymethylcellulose (CMC) 95 % of control | dose: 200.0 mg/kg/injection, schedule: Q01DX001 (ip), vehicle: carboxymethylcellulose (CMC) 98 % of control | dose: 400.0 mg/kg/injection, schedule: Q01DX001 (ip), vehicle: carboxymethylcellulose (CMC) 93 % of control

CC1(C(Cl)(Cl)Cl)C=CC(=O)C(Cl)=C1 (centres undefined)
inactive: [11] 100 % of control | [12] 103 % of control | [13] 97 % of control

CC(C)C[CH2][Pb]([CH2]CC(C)C)([CH2]CC(C)C)[O]C(=O)C(C)C
inactive: dose: 1.56 mg/kg/injection, schedule: Q01DX009 (ip), vehicle: Klucel (hydroxypropylcellulose) (HPC) 97 % of control | dose: 3.12 mg/kg/injection, schedule: Q01DX009 (ip), vehicle: Klucel (hydroxypropylcellulose) (HPC) 93 % of control | dose: 3.12 mg/kg/injection, schedule: Q04DX002 (ip), vehicle: Klucel (hydroxypropylcellulose) (HPC) 111 % of control | dose: 6.25 mg/kg/injection, schedule: Q04DX002 (ip), vehicle: Klucel (hydroxypropylcellulose) (HPC) 115 % of control

O=C1/C(=C/c2ccc(Cl)cc2)CCc2ccccc21
inactive: [1] 101 % of control | [5] 97 % of control | [14] 101 % of control | [6] 96 % of control | [15] 97 % of control | [7] 86 % of control

O=C(Nc1cc(C2=NCCN2)cc(C2=NCCN2)c1)Nc1cc(C2=NCCN2)cc(C2=NCCN2)c1
inactive: dose: 0.75 mg/kg/injection, schedule: Q01DX Z (ip), vehicle: carboxymethylcellulose (CMC) 101 % of control | dose: 1.5 mg/kg/injection, schedule: Q01DX Z (ip), vehicle: carboxymethylcellulose (CMC) 98 % of control | dose: 3.0 mg/kg/injection, schedule: Q01DX Z (ip), vehicle: carboxymethylcellulose (CMC) 95 % of control | dose: 6.0 mg/kg/injection, schedule: Q01DX Z (ip), vehicle: carboxymethylcellulose (CMC) 101 % of control

CCOCCOC(=O)c1ccc(C(=N)OCC)cc1
inactive: [1] 90 % of control | [14] 90 % of control | [15] 86 % of control

CC(CC(=O)N1CCCCC1)CC(=O)N1CCCCC1
inactive: [1] 94 % of control | [14] 104 % of control
